# According to patent publication US10004701B2, “Methods and compositions for treating infection” (UNIVERSITY OF ROCHESTER, priority 2012, dated 2018):
# Read-outs that look alike come from different tables or passages of the source.
# What was measured:
# Test in all cases: AK assay 384-well format, Prestwick library screening
# P. aeruginosa = format: cell-based, Pseudomonas aeruginosa; conditions: 50 μM final drug concentration; for fold induction at 50 µM: Pseudomonas aeruginosa, 3 h
# E. faecium = format: cell-based, Enterococcus faecium; conditions: 50 μM final drug concentration; for fold induction at 50 µM: Enterococcus faecium, 3 h
# [1] = system: A. baumannii strain 98-37-09; format: cell-based, Acinetobacter baumannii; conditions: 50 μM final drug concentration; for fold induction at 50 µM: Acinetobacter baumannii, 983709, 3 h
# E. coli = format: cell-based, Escherichia coli; conditions: 50 μM final drug concentration; for fold induction at 50 µM: Escherichia coli, 3 h
# [2] = system: S. aureus strain USA300-0114; format: cell-based, Staphylococcus aureus; conditions: 50 μM final drug concentration; for fold induction at 50 µM: Staphylococcus aureus, USA300, 3 h
# E. cloacae = format: cell-based, Enterobacter cloacae; conditions: 50 μM final drug concentration; for fold induction at 50 µM: Enterobacter cloacae, 3 h
# K. pneumoniae = format: cell-based, Klebsiella pneumoniae; conditions: 50 μM final drug concentration; for fold induction at 50 µM: Klebsiella pneumoniae, 3 h
# [3] = planktonic P. aeruginosa, 384-well, cutoff for positive-scoring molecules 3-fold increase, read-out: AK-based Prestwick Library Screening Results: P. aeruginosa (increase in extracellular AK activity)
# [4] = planktonic E. faecium, 384-well, cutoff for positive-scoring molecules 3-fold increase, read-out: AK-based Prestwick Library Screening Results: E. faecium (increase in extracellular AK activity)
# [5] = planktonic A. baumannii, 384-well, cutoff for positive-scoring molecules 3-fold increase, read-out: AK-based Prestwick Library Screening Results: A. baumannii (increase in extracellular AK activity)
# [6] = planktonic E. coli, 384-well, cutoff for positive-scoring molecules 3-fold increase, read-out: AK-based Prestwick Library Screening Results: E. coli (increase in extracellular AK activity)
# [7] = planktonic S. aureus, 384-well, cutoff for positive-scoring molecules 3-fold increase, read-out: AK-based Prestwick Library Screening Results: S. aureus (increase in extracellular AK activity)
# [8] = planktonic E. cloacae, 384-well, cutoff for positive-scoring molecules 3-fold increase, read-out: AK-based Prestwick Library Screening Results: E. cloacae (increase in extracellular AK activity)
# [9] = planktonic K. pneumoniae, 384-well, cutoff for positive-scoring molecules 3-fold increase, read-out: AK-based Prestwick Library Screening Results: K. pneumoniae (increase in extracellular AK activity)
# [10] = planktonic, cutoff for positive 3-fold increase, read-out: AK-based Prestwick Library Screening Results, P. aeruginosa (fold increase in extracellular AK activity)
# [11] = planktonic, cutoff for positive 3-fold increase, read-out: AK-based Prestwick Library Screening Results, E. faecium (fold increase in extracellular AK activity)
# [12] = planktonic, cutoff for positive 3-fold increase, read-out: AK-based Prestwick Library Screening Results, A. baumannii (fold increase in extracellular AK activity)
# [13] = planktonic, cutoff for positive 3-fold increase, read-out: AK-based Prestwick Library Screening Results, E. coli (fold increase in extracellular AK activity)
# [14] = planktonic, cutoff for positive 3-fold increase, read-out: AK-based Prestwick Library Screening Results, S. aureus (fold increase in extracellular AK activity)
# [15] = planktonic, cutoff for positive 3-fold increase, read-out: AK-based Prestwick Library Screening Results, E. cloacae (fold increase in extracellular AK activity)
# [16] = planktonic, cutoff for positive 3-fold increase, read-out: AK-based Prestwick Library Screening Results, K. pneumoniae (fold increase in extracellular AK activity)
# [17] = planktonic, cutoff for positive-scoring molecules 3-fold increase, read-out: AK-based Prestwick Library Screening Results, P. aeruginosa (fold increase in extracellular AK activity)
# [18] = planktonic, cutoff for positive-scoring molecules 3-fold increase, read-out: AK-based Prestwick Library Screening Results, E. faecium (fold increase in extracellular AK activity)
# [19] = planktonic, cutoff for positive-scoring molecules 3-fold increase, read-out: AK-based Prestwick Library Screening Results, A. baumannii (fold increase in extracellular AK activity)
# [20] = planktonic, cutoff for positive-scoring molecules 3-fold increase, read-out: AK-based Prestwick Library Screening Results, E. coli (fold increase in extracellular AK activity)
# [21] = planktonic, cutoff for positive-scoring molecules 3-fold increase, read-out: AK-based Prestwick Library Screening Results, S. aureus (fold increase in extracellular AK activity)
# [22] = planktonic, cutoff for positive-scoring molecules 3-fold increase, read-out: AK-based Prestwick Library Screening Results, E. cloacae (fold increase in extracellular AK activity)
# [23] = planktonic, cutoff for positive-scoring molecules 3-fold increase, read-out: AK-based Prestwick Library Screening Results, K. pneumoniae (fold increase in extracellular AK activity)
compound,measurement,setting,value
Cc1cnc(C(=O)NCCc2ccc(S(=O)(=O)NC(=O)NC3CCCCC3)cc2)cn1 [Glipizide],fold induction at 50 µM,P. aeruginosa; [3],1
same,fold induction at 50 µM,E. faecium; [4],0.9
same,fold induction at 50 µM,[1]; [5],1
same,fold induction at 50 µM,E. coli; [6],1.2
same,fold induction at 50 µM,[2]; [7],1.2
same,fold induction at 50 µM,E. cloacae; [8],1.3
same,fold induction at 50 µM,K. pneumoniae; [9],0.8
COc1ccc2c(c1)C(=O)N(CCc1ccc(S(=O)(=O)NC(=O)NC3CCCCC3)cc1)C(=O)C2(C)C [Gliquidone],fold induction at 50 µM,"P. aeruginosa; planktonic P. aeruginosa, positive cutoff 3-fold increase, read-out: AK-based Prestwick library screening result, P. aeruginosa (fold increase in extracellular AK activity)",0.8
same,fold induction at 50 µM,"E. faecium; planktonic E. faecium, positive cutoff 3-fold increase, read-out: AK-based Prestwick library screening result, E. faecium (fold increase in extracellular AK activity)",0.9
same,fold induction at 50 µM,"[1]; planktonic A. baumannii, positive cutoff 3-fold increase, read-out: AK-based Prestwick library screening result, A. baumannii (fold increase in extracellular AK activity)",0.7
same,fold induction at 50 µM,"E. coli; planktonic E. coli, positive cutoff 3-fold increase, read-out: AK-based Prestwick library screening result, E. coli (fold increase in extracellular AK activity)",0.8
same,fold induction at 50 µM,"[2]; planktonic S. aureus, positive cutoff 3-fold increase, read-out: AK-based Prestwick library screening result, S. aureus (fold increase in extracellular AK activity)",0.5
same,fold induction at 50 µM,"E. cloacae; planktonic E. cloacae, positive cutoff 3-fold increase, read-out: AK-based Prestwick library screening result, E. cloacae (fold increase in extracellular AK activity)",1.1
same,fold induction at 50 µM,"K. pneumoniae; planktonic K. pneumoniae, positive cutoff 3-fold increase, read-out: AK-based Prestwick library screening result, K. pneumoniae (fold increase in extracellular AK activity)",0.7
"CCC1(c2ccc(N)cc2)CCC(=O)NC1=O (stereo not shown) [Glutethimide, para-amino]","AK-based Prestwick Library Screening Results, P. aeruginosa (increase in extracellular AK activity)","P. aeruginosa; 384-well format, […]",0.6
same,"AK-based Prestwick Library Screening Results, E. faecium (increase in extracellular AK activity)","E. faecium; 384-well format, […]",0.9
same,"AK-based Prestwick Library Screening Results, A. baumannii (increase in extracellular AK activity)","[1]; 384-well format, […]",0.6
same,"AK-based Prestwick Library Screening Results, E. coli (increase in extracellular AK activity)","E. coli; 384-well format, […]",0.5
same,"AK-based Prestwick Library Screening Results, S. aureus (increase in extracellular AK activity)","[2]; 384-well format, […]",0.5
same,"AK-based Prestwick Library Screening Results, E. cloacae (increase in extracellular AK activity)","E. cloacae; 384-well format, […]",0.5
same,"AK-based Prestwick Library Screening Results, K. pneumoniae (increase in extracellular AK activity)","K. pneumoniae; 384-well format, […]",0.6
C[C@H](CCC(=O)NCC(=O)O)[C@H]1CC[C@H]2[C@@H]3[C@H](O)C[C@@H]4C[C@H](O)CC[C@]4(C)[C@H]3C[C@H](O)[C@]12C [Glycocholic acid],fold induction at 50 µM,P. aeruginosa; [10],1.1
same,fold induction at 50 µM,E. faecium; [11],1.1
same,fold induction at 50 µM,[1]; [12],1.1
same,fold induction at 50 µM,E. coli; [13],1.1
same,fold induction at 50 µM,[2]; [14],1.2
same,fold induction at 50 µM,E. cloacae; [15],1.4
same,fold induction at 50 µM,K. pneumoniae; [16],1
C[N+]1(C)CCC(OC(=O)C(O)(c2ccccc2)C2CCCC2)C1 (stereo not shown) [Glycopyrrolate],fold induction at 50 µM,P. aeruginosa; [17],0.9
same,fold induction at 50 µM,E. faecium; [18],0.9
same,fold induction at 50 µM,[1]; [19],0.8
same,fold induction at 50 µM,E. coli; [20],0.9
same,fold induction at 50 µM,[2]; [21],0.7
same,fold induction at 50 µM,E. cloacae; [22],1.1
same,fold induction at 50 µM,K. pneumoniae; [23],0.8
Cc1cc2c(C(C)C)c(O)c(O)c(C=O)c2c(O)c1-c1c(C)cc2c(C(C)C)c(O)c(O)c(C=O)c2c1O [Gossypol],fold induction at 50 µM,"P. aeruginosa; planktonic, […], read-out: AK-based Prestwick Library Screening Results, P. aeruginosa (fold increase in extracellular AK activity)",0.5
same,fold induction at 50 µM,"E. faecium; planktonic, […], read-out: AK-based Prestwick Library Screening Results, E. faecium (fold increase in extracellular AK activity)",1.3
same,fold induction at 50 µM,"[1]; planktonic, […], read-out: AK-based Prestwick Library Screening Results, A. baumannii (fold increase in extracellular AK activity)",0.4
same,fold induction at 50 µM,"E. coli; planktonic, […], read-out: AK-based Prestwick Library Screening Results, E. coli (fold increase in extracellular AK activity)",0.6
same,fold induction at 50 µM,"[2]; planktonic, […], read-out: AK-based Prestwick Library Screening Results, S. aureus (fold increase in extracellular AK activity)",0.2
same,fold induction at 50 µM,"E. cloacae; planktonic, […], read-out: AK-based Prestwick Library Screening Results, E. cloacae (fold increase in extracellular AK activity)",1.5
same,fold induction at 50 µM,"K. pneumoniae; planktonic, […], read-out: AK-based Prestwick Library Screening Results, K. pneumoniae (fold increase in extracellular AK activity)",0.3
CN(C)Cc1c[nH]c2ccccc12 [Gramine],fold induction at 50 µM,P. aeruginosa; [10],1.1
same,fold induction at 50 µM,E. faecium; [11],1
same,fold induction at 50 µM,[1]; [12],1.3
same,fold induction at 50 µM,E. coli; [13],1.2
same,fold induction at 50 µM,[2]; [14],1.3
same,fold induction at 50 µM,E. cloacae; [15],1.5
same,fold induction at 50 µM,K. pneumoniae; [16],1
Cn1c(-c2ccc3c(c2)OCO3)cc(=O)c2ccccc21 [Graveoline],fold induction at 50 µM,P. aeruginosa; [17],0.8
same,fold induction at 50 µM,E. faecium; [18],0.8
same,fold induction at 50 µM,[1]; [19],0.8
same,fold induction at 50 µM,E. coli; [20],0.8
same,fold induction at 50 µM,[2]; [21],0.7
same,fold induction at 50 µM,E. cloacae; [22],1.2
same,fold induction at 50 µM,K. pneumoniae; [23],0.6
COC1=CC(=O)C[C@@H](C)[C@]12Oc1c(Cl)c(OC)cc(OC)c1C2=O [Griseofulvin],fold induction at 50 µM,P. aeruginosa; [3],1.3
same,fold induction at 50 µM,E. faecium; [4],1.1
same,fold induction at 50 µM,[1]; [5],1.4
same,fold induction at 50 µM,E. coli; [6],1.3
same,fold induction at 50 µM,[2]; [7],1.4
same,fold induction at 50 µM,E. cloacae; [8],1.3
same,fold induction at 50 µM,K. pneumoniae; [9],0.9
COc1ccccc1OCC(O)CO (stereo not shown) [Guaifenesin],fold induction at 50 µM,"P. aeruginosa; […], read-out: AK-based Prestwick Library Screening Results, P. aeruginosa (fold increase in extracellular AK activity)",1.1
same,fold induction at 50 µM,"E. faecium; […], read-out: AK-based Prestwick Library Screening Results, E. faecium (fold increase in extracellular AK activity)",1
same,fold induction at 50 µM,"[1]; […], read-out: AK-based Prestwick Library Screening Results, A. baumannii (fold increase in extracellular AK activity)",1
same,fold induction at 50 µM,"E. coli; […], read-out: AK-based Prestwick Library Screening Results, E. coli (fold increase in extracellular AK activity)",1.1
same,fold induction at 50 µM,"[2]; […], read-out: AK-based Prestwick Library Screening Results, S. aureus (fold increase in extracellular AK activity)",1.2
same,fold induction at 50 µM,"E. cloacae; […], read-out: AK-based Prestwick Library Screening Results, E. cloacae (fold increase in extracellular AK activity)",1.6
same,fold induction at 50 µM,"K. pneumoniae; […], read-out: AK-based Prestwick Library Screening Results, K. pneumoniae (fold increase in extracellular AK activity)",0.8
